Results as given in PubChem BioAssay AID248 (DTP/NCI, 2004).
“And” between values parts separate entries of the source, which are not always exact repeats. Equal entries are not always repeated. Toxic doses and inconclusive results are not listed. Rule as the data show it: active = T/C of 150% or more; inactive = T/C below 125%.

System: L1210 leukemia ip in BDF1 mice, survival T/C
Assay: NCI In Vivo Anticancer Drug Screen. Data for tumor model L1210 Leukemia (intraperitoneal) in B6D2F1 (BDF1) mice
Settings: higher = longer survival
In short: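 Read-out is survival time, reported as the treated-group measurement over the vehicle-control measurement.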

Measured: T/C

O=C1OC(C(O)CO)C(O)=C1O (configuration not stated)
inactive: endpoint: mean survival time, dose: 0.05 mg/kg/injection, schedule: Q01DX005 (iv), vehicle: saline 98 % of control | endpoint: mean survival time, dose: 0.05 mg/kg/injection, schedule: Q01DX009 (oral), vehicle: saline 102 % of control | endpoint: mean survival time, dose: 0.1 mg/kg/injection, schedule: Q01DX005 (iv), vehicle: saline 97 % of control | endpoint: mean survival time, dose: 0.1 mg/kg/injection, schedule: Q01DX009 (ip), vehicle: saline 95 % of control | endpoint: mean survival time, dose: 0.1 mg/kg/injection, schedule: Q01DX009 (oral), vehicle: saline 98 % of control | endpoint: mean survival time, dose: 0.1 mg/kg/injection, schedule: Q01DX009 (sc), vehicle: saline 98 % of control | endpoint: mean survival time, dose: 0.12 mg/kg/injection, schedule: Q01DX009 (ip), vehicle: saline 100 % of control | endpoint: mean survival time, dose: 0.13 mg/kg/injection, schedule: Q01DX009 (ip), vehicle: saline 100 % of control | endpoint: mean survival time, dose: 0.2 mg/kg/injection, schedule: Q01DX005 (iv), vehicle: saline 102 % of control | endpoint: mean survival time, dose: 0.2 mg/kg/injection, schedule: Q01DX009 (im), vehicle: saline 98 % of control | endpoint: mean survival time, dose: 0.2 mg/kg/injection, schedule: Q01DX009 (ip), vehicle: saline 101 % of control | endpoint: mean survival time, dose: 0.39 mg/kg/injection, schedule: Q01DX005 (iv), vehicle: saline 95 % of control | endpoint: mean survival time, dose: 0.39 mg/kg/injection, schedule: Q01DX009 (im), vehicle: saline 95 % of control | endpoint: mean survival time, dose: 0.39 mg/kg/injection, schedule: Q01DX009 (ip), vehicle: saline 95 % of control | endpoint: mean survival time, dose: 0.39 mg/kg/injection, schedule: Q01DX009 (oral), vehicle: saline 98 % of control | endpoint: mean survival time, dose: 0.5 mg/kg/injection, schedule: Q01DX001 (ip), vehicle: saline 97 % of control | endpoint: mean survival time, dose: 0.5 mg/kg/injection, schedule: Q01DX009 (ip), vehicle: saline 96 % of control and 101 % of control | endpoint: mean survival time, dose: 0.78 mg/kg/injection, schedule: Q01DX005 (iv), vehicle: saline 98 % of control | endpoint: mean survival time, dose: 0.78 mg/kg/injection, schedule: Q01DX009 (im), vehicle: saline 93 % of control | endpoint: mean survival time, dose: 0.78 mg/kg/injection, schedule: Q01DX009 (ip), vehicle: saline 102 % of control | endpoint: mean survival time, dose: 0.78 mg/kg/injection, schedule: Q01DX009 (oral), vehicle: saline 99 % of control | endpoint: mean survival time, dose: 1.0 mg/kg/injection, schedule: Q01DX001 (ip), vehicle: saline 100 % of control and 101 % of control | endpoint: mean survival time, dose: 1.0 mg/kg/injection, schedule: Q01DX009 (ip), vehicle: saline 95 % of control and 101 % of control | endpoint: mean survival time, dose: 1.56 mg/kg/injection, schedule: Q01DX005 (iv), vehicle: saline 98 % of control | endpoint: mean survival time, dose: 1.56 mg/kg/injection, schedule: Q01DX009 (im), vehicle: saline 100 % of control | endpoint: mean survival time, dose: 1.56 mg/kg/injection, schedule: Q01DX009 (ip), vehicle: saline 93 % of control | endpoint: mean survival time, dose: 1.56 mg/kg/injection, schedule: Q01DX009 (oral), vehicle: saline 94 % of control | endpoint: mean survival time, dose: 2.0 mg/kg/injection, schedule: Q01DX001 (ip), vehicle: saline 101 % of control and 103 % of control | endpoint: mean survival time, dose: 2.0 mg/kg/injection, schedule: Q01DX009 (ip), vehicle: saline 95 % of control and 97 % of control | endpoint: mean survival time, dose: 3.12 mg/kg/injection, schedule: Q01DX005 (iv), vehicle: saline 95 % of control | endpoint: mean survival time, dose: 3.12 mg/kg/injection, schedule: Q01DX009 (im), vehicle: saline 95 % of control | endpoint: mean survival time, dose: 3.12 mg/kg/injection, schedule: Q01DX009 (oral), vehicle: saline 93 % of control | endpoint: mean survival time, dose: 3.12 mg/kg/injection, schedule: Q01DX009 (sc), vehicle: saline 96 % of control | endpoint: mean survival time, dose: 4.0 mg/kg/injection, schedule: Q01DX001 (ip), vehicle: saline 101 % of control and 104 % of control | endpoint: mean survival time, dose: 4.0 mg/kg/injection, schedule: Q01DX009 (ip), vehicle: saline 94 % of control and 101 % of control | endpoint: mean survival time, dose: 6.25 mg/kg/injection, schedule: Q01DX009 (im), vehicle: saline 98 % of control | endpoint: mean survival time, dose: 6.25 mg/kg/injection, schedule: Q01DX009 (ip), vehicle: saline 95 % of control | endpoint: mean survival time, dose: 6.25 mg/kg/injection, schedule: Q01DX009 (oral), vehicle: saline 98 % of control | endpoint: mean survival time, dose: 6.25 mg/kg/injection, schedule: Q01DX009 (sc), vehicle: saline 102 % of control | endpoint: mean survival time, dose: 8.0 mg/kg/injection, schedule: Q01DX001 (ip), vehicle: saline 100 % of control | endpoint: mean survival time, dose: 8.0 mg/kg/injection, schedule: Q01DX009 (ip), vehicle: saline 95 % of control and 97 % of control | endpoint: mean survival time, dose: 12.5 mg/kg/injection, schedule: Q01DX009 (im), vehicle: saline 100 % of control | endpoint: mean survival time, dose: 12.5 mg/kg/injection, schedule: Q01DX009 (ip), vehicle: saline 102 % of control | endpoint: mean survival time, dose: 12.5 mg/kg/injection, schedule: Q01DX009 (oral), vehicle: saline 100 % of control | endpoint: mean survival time, dose: 12.5 mg/kg/injection, schedule: Q01DX009 (sc), vehicle: saline 94 % of control | endpoint: mean survival time, dose: 16.0 mg/kg/injection, schedule: Q01DX001 (ip), vehicle: saline 94 % of control | endpoint: mean survival time, dose: 16.0 mg/kg/injection, schedule: Q01DX009 (ip), vehicle: saline 101 % of control | endpoint: mean survival time, dose: 25.0 mg/kg/injection, schedule: Q01DX009 (ip), vehicle: saline 95 % of control | endpoint: mean survival time, dose: 25.0 mg/kg/injection, schedule: Q01DX009 (sc), vehicle: saline 102 % of control | endpoint: mean survival time, dose: 32.0 mg/kg/injection, schedule: Q01DX001 (ip), vehicle: saline 97 % of control | endpoint: mean survival time, dose: 32.0 mg/kg/injection, schedule: Q01DX009 (ip), vehicle: saline 103 % of control | endpoint: mean survival time, dose: 37.5 mg/kg/injection, schedule: Q01DX009 (ip), vehicle: saline 98 % of control | endpoint: mean survival time, dose: 50.0 mg/kg/injection, schedule: Q01DX005 (iv), vehicle: saline 102 % of control | endpoint: mean survival time, dose: 50.0 mg/kg/injection, schedule: Q01DX009 (im), vehicle: saline 96 % of control | endpoint: mean survival time, dose: 50.0 mg/kg/injection, schedule: Q01DX009 (ip), vehicle: saline 96 % of control | endpoint: mean survival time, dose: 50.0 mg/kg/injection, schedule: Q01DX009 (oral), vehicle: saline 100 % of control | endpoint: mean survival time, dose: 64.0 mg/kg/injection, schedule: Q01DX001 (ip), vehicle: saline 97 % of control and 101 % of control | endpoint: mean survival time, dose: 100.0 mg/kg/injection, schedule: Q01DX001 (ip), vehicle: saline 96 % of control | endpoint: mean survival time, dose: 100.0 mg/kg/injection, schedule: Q01DX005 (iv), vehicle: saline 97 % of control | endpoint: mean survival time, dose: 100.0 mg/kg/injection, schedule: Q01DX009 (im), vehicle: saline 96 % of control | endpoint: mean survival time, dose: 100.0 mg/kg/injection, schedule: Q01DX009 (ip), vehicle: saline 93 % of control and 98 % of control | endpoint: mean survival time, dose: 100.0 mg/kg/injection, schedule: Q01DX009 (oral), vehicle: saline 103 % of control | endpoint: mean survival time, dose: 100.0 mg/kg/injection, schedule: Q04DX003 (ip), vehicle: saline 96 % of control | endpoint: mean survival time, dose: 150.0 mg/kg/injection, schedule: Q03HX024 (ip), vehicle: saline 93 % of control | endpoint: mean survival time, dose: 200.0 mg/kg/injection, schedule: Q01DX001 (ip), vehicle: saline 104 % of control | endpoint: mean survival time, dose: 200.0 mg/kg/injection, schedule: Q01DX005 (iv), vehicle: saline 102 % of control | endpoint: mean survival time, dose: 200.0 mg/kg/injection, schedule: Q01DX009 (im), vehicle: saline 98 % of control | endpoint: mean survival time, dose: 200.0 mg/kg/injection, schedule: Q01DX009 (ip), vehicle: saline 101 % of control | endpoint: mean survival time, dose: 200.0 mg/kg/injection, schedule: Q01DX009 (oral), vehicle: saline 96 % of control | endpoint: mean survival time, dose: 300.0 mg/kg/injection, schedule: Q01DX009 (ip), vehicle: saline 97 % of control | endpoint: mean survival time, dose: 400.0 mg/kg/injection, schedule: Q01DX001 (ip), vehicle: saline 93 % of control | endpoint: mean survival time, dose: 400.0 mg/kg/injection, schedule: Q01DX005 (iv), vehicle: saline 101 % of control | endpoint: mean survival time, dose: 400.0 mg/kg/injection, schedule: Q01DX009 (im), vehicle: saline 102 % of control | endpoint: mean survival time, dose: 400.0 mg/kg/injection, schedule: Q01DX009 (ip), vehicle: saline 93 % of control and 95 % of control and 102 % of control | endpoint: mean survival time, dose: 400.0 mg/kg/injection, schedule: Q01DX009 (oral), vehicle: saline 98 % of control | endpoint: mean survival time, dose: 800.0 mg/kg/injection, schedule: Q01DX001 (ip), vehicle: saline 94 % of control | endpoint: mean survival time, dose: 800.0 mg/kg/injection, schedule: Q01DX005 (iv), vehicle: saline 98 % of control | endpoint: mean survival time, dose: 800.0 mg/kg/injection, schedule: Q01DX009 (im), vehicle: saline 93 % of control | endpoint: mean survival time, dose: 800.0 mg/kg/injection, schedule: Q01DX009 (oral), vehicle: saline 94 % of control | endpoint: mean survival time, dose: 1200.0 mg/kg/injection, schedule: Q01DX001 (ip), vehicle: saline 100 % of control | endpoint: mean survival time, dose: 1600.0 mg/kg/injection, schedule: Q01DX001 (ip), vehicle: saline 100 % of control | endpoint: mean survival time, dose: 1600.0 mg/kg/injection, schedule: Q01DX009 (im), vehicle: saline 98 % of control | endpoint: mean survival time, dose: 1600.0 mg/kg/injection, schedule: Q01DX009 (oral), vehicle: saline 96 % of control | endpoint: median survival time, dose: 500.0 mg/kg/injection, schedule: Q01DX001 (oral), vehicle: water 100 % of control | endpoint: median survival time, dose: 1000.0 mg/kg/injection, schedule: Q01DX001 (oral), vehicle: water 100 % of control | endpoint: median survival time, dose: 1500.0 mg/kg/injection, schedule: Q01DX001 (oral), vehicle: water 94 % of control | endpoint: median survival time, dose: 3000.0 mg/kg/injection, schedule: Q01DX001 (oral), vehicle: water 100 % of control
